#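 Following 48 hours of exposure in 96-well plates, responses at five concentrations were used to interpolate endpoints linearly. Definition used: TGI = concentration required for complete inhibition of growth.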
# Assays:
# Assay in all cases: NCI-60 cell line screen, 48 h
# OVCAR-3 ovarian = tested on: OVCAR-3 ovarian
# SF-539 CNS = tested on: SF-539 CNS
# IGROV1 ovarian = tested on: IGROV1 ovarian
# DLD-1 colon = tested on: DLD-1 colon
# SNB-19 CNS = tested on: SNB-19 CNS
# LXFL 529 NSCLC = tested on: LXFL 529 NSCLC
# OVCAR-4 ovarian = tested on: OVCAR-4 ovarian
# EKVX NSCLC = tested on: EKVX NSCLC
# CAKI-1 renal = tested on: CAKI-1 renal
# 786-0 renal = tested on: 786-0 renal
# SN12C renal = tested on: SN12C renal
# SNB-75 CNS = tested on: SNB-75 CNS
# A549 NSCLC = tested on: A549 NSCLC
# XF 498 CNS = tested on: XF 498 CNS
# M19-MEL melanoma = tested on: M19-MEL melanoma
# TK-10 renal = tested on: TK-10 renal
# HOP-62 NSCLC = tested on: HOP-62 NSCLC
# MOLT-4 leukemia = tested on: MOLT-4 leukemia
# HOP-92 NSCLC = tested on: HOP-92 NSCLC
# M14 melanoma = tested on: M14 melanoma
# SK-MEL-28 melanoma = tested on: SK-MEL-28 melanoma
# RXF 393 renal = tested on: RXF 393 renal
# NCI-H460 lung = tested on: NCI-H460 lung
# HOP-18 NSCLC = tested on: HOP-18 NSCLC
# OVCAR-5 ovarian = tested on: OVCAR-5 ovarian
# RPMI-8226 leukemia = tested on: RPMI-8226 leukemia
# KM12 colon = tested on: KM12 colon
# U251 CNS = tested on: U251 CNS
# NCI-H226 lung = tested on: NCI-H226 lung
# KM20L2 colon = tested on: KM20L2 colon
# SF-295 CNS = tested on: SF-295 CNS
# ACHN renal = tested on: ACHN renal
# CCRF-CEM leukemia = tested on: CCRF-CEM leukemia
# HCT-15 colon = tested on: HCT-15 colon
# HT29 colon = tested on: HT29 colon
# OVCAR-8 ovarian = tested on: OVCAR-8 ovarian
# K-562 leukemia = tested on: K-562 leukemia
# UO-31 renal = tested on: UO-31 renal
# DMS 114 small cell lung = tested on: DMS 114 small cell lung
# HL-60(TB) leukemia = tested on: HL-60(TB) leukemia
# LOX IMVI melanoma = tested on: LOX IMVI melanoma
# SW-620 colon = tested on: SW-620 colon
# MALME-3M melanoma = tested on: MALME-3M melanoma
# SK-OV-3 ovarian = tested on: SK-OV-3 ovarian
# NCI-H522 lung = tested on: NCI-H522 lung
# UACC-62 melanoma = tested on: UACC-62 melanoma
# NCI-H23 lung = tested on: NCI-H23 lung
# A498 renal = tested on: A498 renal
# DMS 273 small cell lung = tested on: DMS 273 small cell lung
# SK-MEL-2 melanoma = tested on: SK-MEL-2 melanoma
# UACC-257 melanoma = tested on: UACC-257 melanoma
# HCC-2998 colon = tested on: HCC-2998 colon
# COLO 205 colon = tested on: COLO 205 colon
# SNB-78 CNS = tested on: SNB-78 CNS
# SF-268 CNS = tested on: SF-268 CNS
smiles,measurement,setting,value
CC(C)CCC[C@@H](C)C1CCC2[C@@H]3CC=C4C[C@@H](C(=O)NCCN(C)C)CC[C@]4(C)C3CC[C@@]21C (stereo not given in full),TGI,OVCAR-3 ovarian,> 100 µM
same,TGI,SF-539 CNS,46 µM
same,TGI,IGROV1 ovarian,> 100 µM
same,TGI,DLD-1 colon,> 100 µM
same,TGI,SNB-19 CNS,> 100 µM
same,TGI,LXFL 529 NSCLC,> 100 µM
same,TGI,OVCAR-4 ovarian,> 100 µM
same,TGI,EKVX NSCLC,> 100 µM
same,TGI,CAKI-1 renal,> 100 µM
same,TGI,786-0 renal,43.2 µM
same,TGI,SN12C renal,46.7 µM
same,TGI,SNB-75 CNS,> 100 µM
same,TGI,A549 NSCLC,> 100 µM
same,TGI,XF 498 CNS,48.7 µM
same,TGI,M19-MEL melanoma,39.7 µM
same,TGI,TK-10 renal,69.8 µM
same,TGI,HOP-62 NSCLC,61.2 µM
same,TGI,MOLT-4 leukemia,> 100 µM
same,TGI,HOP-92 NSCLC,61.4 µM
same,TGI,M14 melanoma,32.6 µM
same,TGI,SK-MEL-28 melanoma,> 100 µM
same,TGI,RXF 393 renal,> 100 µM
same,TGI,NCI-H460 lung,> 100 µM
same,TGI,HOP-18 NSCLC,66.6 µM
same,TGI,OVCAR-5 ovarian,> 100 µM
same,TGI,RPMI-8226 leukemia,94 µM
same,TGI,KM12 colon,28.2 µM
same,TGI,U251 CNS,77.4 µM
same,TGI,NCI-H226 lung,51.4 µM
same,TGI,KM20L2 colon,> 100 µM
same,TGI,SF-295 CNS,> 100 µM
same,TGI,ACHN renal,> 100 µM
same,TGI,CCRF-CEM leukemia,73.1 µM
same,TGI,HCT-15 colon,53.7 µM
same,TGI,HT29 colon,> 100 µM
same,TGI,OVCAR-8 ovarian,> 100 µM
same,TGI,K-562 leukemia,> 100 µM
same,TGI,UO-31 renal,55.1 µM
same,TGI,DMS 114 small cell lung,38.1 µM
same,TGI,HL-60(TB) leukemia,> 100 µM
same,TGI,LOX IMVI melanoma,> 100 µM
same,TGI,SW-620 colon,> 100 µM
same,TGI,MALME-3M melanoma,> 100 µM
same,TGI,SK-OV-3 ovarian,> 100 µM
same,TGI,NCI-H522 lung,> 100 µM
same,TGI,UACC-62 melanoma,> 100 µM
same,TGI,NCI-H23 lung,52.1 µM
same,TGI,A498 renal,> 100 µM
same,TGI,DMS 273 small cell lung,> 100 µM
same,TGI,SK-MEL-2 melanoma,23.6 µM
same,TGI,UACC-257 melanoma,77.1 µM
same,TGI,HCC-2998 colon,65.6 µM
same,TGI,COLO 205 colon,38.3 µM
same,TGI,SNB-78 CNS,> 100 µM
same,TGI,SF-268 CNS,> 100 µM
